According to patent US20070179060A1, “6-(Poly-substituted aryl)-4-aminopicolinates and their use as herbicides” (priority 2006, published 2007):

Columns and labels:
[1] = test system: lambsquarter (Chenopodium album); assay: Postemergence herbicidal activity; format: in vivo; conditions: post-emergent, 140 g ai/ha, after 14 days; for pest or weed control at 140 g/ha: Chenopodium album, post-emergence, 336 h, read-out: % Control CHEAL
Protocol: (§1) Seeds or nutlets of the desired test plant species were planted in Sun Gro MetroMix® 306 planting mixture, which typically has a pH of 6.0 to 6.8 and an organic matter content of about 30 percent, in plastic pots with a surface area of 64 square centimeters. When required to ensure good germination and healthy plants, a fungicide treatment and/or other chemical or physical treatment was applied. The plants were grown for 7-21 days in a greenhouse with an approximate 15 hour photoperiod which was maintained at about 23-29° C. during the day and 22-28° C. during the night. Nutrients and water were added on a regular basis and supplemental lighting was provided with overhead metal halide 1000-Watt lamps as necessary. The plants were employed for testing when they reached the first or second true leaf stage. […] The concentrated stock solutions obtained were diluted with 20 mL of an aqueous mixture containing acetone, water, isopropyl alcohol, DMSO, Atplus 411F crop oil concentrate, and Triton® X-155 surfactant in a 48.5:39:10:1.5:1.0:0.02 v/v ratio to obtain spray solutions containing the highest application rates. […] Compound requirements are based upon a 12 mL application volume at a rate of 187 L/ha. Formulated compounds were applied to the plant material with an overhead Mandel track sprayer equipped with a […] nozzles calibrated to deliver 187 L/ha over an application area of 0.503 square meters at a spray height of 18 inches (43 cm) above the average plant canopy height. Control plants were sprayed in the same manner with the solvent blank. The treated plants and control plants were placed in a greenhouse as described above and watered by sub-irrigation to prevent wash-off of the test compounds. […] By applying the well-accepted probit analysis as described by J. Berkson in Journal of the American Statistical […], 48, 565 (1953) and by D.

[2] = test system: velvetleaf (Abutilon theophrasti); assay: Postemergence herbicidal activity; format: in vivo; conditions: post-emergent, 140 g ai/ha, after 14 days; for pest or weed control at 140 g/ha: Abutilon theophrasti, post-emergence, 336 h, read-out: % Control ABUTH
Protocol: as §1

[3] = test system: redroot pigweed (Amaranthus retroflexus); assay: Postemergence herbicidal activity; format: in vivo; conditions: post-emergent, 140 g ai/ha, after 14 days; for pest or weed control at 140 g/ha: Amaranthus retroflexus, post-emergence, 336 h, read-out: % Control AMARE
Protocol: as §1

melting point	SMILES	pest or weed control at 140 g/ha [1] [%]	pest or weed control at 140 g/ha [2] [%]	pest or weed control at 140 g/ha [3] [%]	% Control CHEAL [1] [%]	% Control ABUTH [2] [%]	% Control AMARE [3] [%]
189 to 190 °C	COC(=O)c1nc(-c2ccc(Cl)c(C#N)c2F)cc(N)c1Cl [Compound 2, 4-Amino-3-chloro-6-(4-chloro-3-cyano-2-fluorophenyl)pyridine-2-carboxylic acid methyl ester]	80	85	90			
134 to 136 °C	COC(=O)c1nc(-c2ccc(Cl)c(OCC(F)F)c2F)cc(N)c1Cl [Compound 8, 4-Amino-3-chloro-6-[4-chloro-2-fluoro-3-(2,2-difluoroethoxy)phenyl]pyridine-2-carboxylic acid methyl ester]	95	80	100			
115 to 116 °C	CCOc1cc(-c2cc(N)c(Cl)c(C(=O)OC)n2)c(F)cc1Cl [Compound 9, 4-Amino-3-chloro-6-(4-chloro-2-fluoro-5-ethoxyphenyl)pyridine-2-carboxylic acid methyl ester]	100	85	100			
89 to 90 °C	COCCOc1c(Cl)ccc(-c2cc(N)c(Cl)c(C(=O)OC)n2)c1F [Compound 11, 4-Amino-3-chloro-6-[4-chloro-2-fluoro-3-(methoxyethoxy)phenyl]pyridine-2-carboxylic acid methyl ester]	80	90	95			
180 to 182 °C	COC(=O)c1nc(-c2cc(OC)c(Cl)cc2F)cc(NC(C)=O)c1Cl [Compound 18, 4-acetylamino-3-chloro-6-(4-chloro-2-fluoro-5-methoxy-phenyl)pyridine-2-carboxylic acid methyl ester]						
151 to 152 °C	COC(=O)c1nc(-c2ccc(Cl)c(C)c2F)cc(NC(C)=O)c1Cl [Compound 19, 4-Acetylamino-3-chloro-6-(4-chloro-2-fluoro-3-methylphenyl)pyridine-2-carboxylic acid methyl ester]						
159 to 160 °C	COC(=O)c1nc(-c2ccc(Cl)c(OC)c2F)cc(NC(C)=O)c1Cl [Compound 20, 4-Acetylamino-3-chloro-6-(4-chloro-2-fluoro-3-methoxyphenyl)pyridine-2-carboxylic acid methyl ester]						
152 to 153 °C	COC(=O)c1nc(-c2ccc(F)c(C)c2F)cc(NC(C)=O)c1Cl [Compound 23, 4-acetylamino-3-chloro-6-(2,4-difluoro-3-methylphenyl)-pyridine-2-carboxylic acid methyl ester]						
172 to 174 °C	COC(=O)c1nc(-c2ccc(Cl)c(C)c2Cl)cc(NC(C)=O)c1Cl [Compound 24, 4-Acetylamino-3-chloro-6-(2,4-dichloro-3-methylphenyl)pyridine-2-carboxylic acid methyl ester]						
152 to 153 °C	COC(=O)c1nc(-c2ccc(Cl)c(C(F)F)c2Cl)cc(NC(C)=O)c1Cl [Compound 30, 4-Acetylamino-3-chloro-6-[2,4-dichloro-3-(difluoromethyl)phenyl]pyridine-2-carboxylic acid, methyl ester]	95	100	90			
169 to 171 °C	COC(=O)c1nc(-c2ccc(F)c(F)c2F)cc(NC(C)=O)c1Cl [Compound 33, 4-Acetylamino-3-chloro-6-(2,3,4-trifluorophenyl)pyridine-2-carboxylic acid, methyl ester]	90	95	95			
122 to 123 °C	COCOc1c(Cl)ccc(-c2cc(NC(C)=O)c(Cl)c(C(=O)OC)n2)c1F [Compound 34, 4-Acetylamino-3-chloro-6-(4-chloro-2-fluoro-3-methoxymethoxy-phenyl)pyridine-2-carboxylic acid, methyl ester]						
144 to 144.5 °C	COC(=O)c1nc(-c2c(F)cc(Cl)c(OC)c2F)cc(NC(C)=O)c1Cl [Compound 40, 4-Acetylamino-3-chloro-6-(4-chloro-2,6-difluoro-3-methoxyphenyl)pyridine-2-carboxylic acid, methyl ester]	100	95	95			
129 to 130 °C	COC(=O)c1nc(-c2ccc(F)c(C)c2F)cc(N)c1Cl [Compound 47, 4-Amino-3-chloro-6-(2,4-difluoro-3-methylphenyl)pyridine-2-carboxylic acid methyl ester]	100	100	100			
163 to 164 °C	COC(=O)c1nc(-c2ccc(F)c(F)c2F)cc(N)c1Cl [Compound 67, 4-Amino-3-chloro-6-(2,3,4-trifluorophenyl)pyridine-2-carboxylic acid, methyl ester]	100	100	100			
99 °C	COCOc1c(Cl)ccc(-c2cc(N)c(Cl)c(C(=O)OC)n2)c1F [Compound 68, 4-Amino-3-chloro-6-(4-chloro-2-fluoro-3-methoxymethoxyphenyl)pyridine-2-carboxylic acid, methyl ester]	100	95	100			
164 °C	COC(=O)c1nc(-c2ccc(Cl)c(OC(F)F)c2F)cc(N)c1Cl [Compound 69, 4-Amino-3-chloro-6-(4-chloro-2-fluoro-3-difluoromethoxyphenyl)pyridine-2-carboxylic acid, methyl ester]	100	100	100			
134 to 136 °C	COC(=O)c1nc(-c2ccc(C(F)F)c(OC)c2Cl)cc(N)c1Cl [Compound 79, 4-Amino-3-chloro-6-(2-chloro-4-difluoromethyl-3-methoxyphenyl)pyridine-2-carboxylic acid, methyl ester]	100	95	90			
158 to 159 °C	CCOc1c(F)ccc(-c2cc(N)c(Cl)c(C(=O)OC)n2)c1F [Compound 80, 4-Amino-3-chloro-6-(2,4-difluoro-3-ethoxyphenyl)pyridine-2-carboxylic acid, methyl ester]	95	100	100			
135 to 136.5 °C	COC(=O)c1nc(-c2ccc(Cl)c(C3CC3)c2F)cc(N)c1Cl [Compound 81, 4-Amino-3-chloro-6-(4-chloro-3-cyclopropyl-2-fluorophenyl)pyridine-2-carboxylic acid, methyl ester]	95	100	100			
104 to 105 °C	COC(=O)c1nc(-c2sc(F)c(CF)c2Cl)cc(N)c1Cl [Compound 85, 4-amino-3-chloro-6-(4-chloro-2-fluoro-3-fluoromethylthiophenyl)pyridine-2-carboxylic acid methyl ester]						
178 to 179 °C (dec.)	CCOc1cc(-c2cc(N)c(Cl)c(C(=O)O)n2)c(F)cc1Cl [Compound 109, 4-Amino-3-chloro-6-(4-chloro-2-fluoro-5-ethoxyphenyl)pyridine-2-carboxylic acid]						
	CC(C)(F)c1c(Cl)ccc(-c2cc(N)c(Cl)c(C(=O)O)n2)c1Cl [Compound 127]				100	90	100
192 to 193 °C (dec.)	CCc1c(Cl)ccc(-c2cc(N)c(Cl)c(C(=O)O)n2)c1F [Compound 128, 4-Amino-3-chloro-6-(4-chloro-3-ethyl-2-fluorophenyl)pyridine-2-carboxylic acid]						
159 °C (dec.)	COCOc1c(Cl)ccc(-c2cc(N)c(Cl)c(C(=O)O)n2)c1F [Compound 132, 4-Amino-3-chloro-6-(4-chloro-2-fluoro-3-methoxymethoxyphenyl)pyridine-2-carboxylic acid]						

SMILES	melting point	pest or weed control at 140 g/ha [1] [%]	pest or weed control at 140 g/ha [2] [%]	pest or weed control at 140 g/ha [3] [%]	% Control CHEAL [1] [%]	% Control ABUTH [2] [%]	% Control AMARE [3] [%]
CCCCOc1c(Cl)ccc(-c2cc(N)c(Cl)c(C(=O)O)n2)c1F [Compound 124, 4-Amino-3-chloro-6-(4-chloro-3-butoxy-2-fluorophenyl)pyridine-2-carboxylic acid]	157 to 158 °C (dec.)						
